The text below walks through data of PMC3169616, “Unique Residues Involved in Activation of the Multitasking Protease/Chaperone HtrA from Chlamydia trachomatis” (PLoS ONE, 2011).

“Also recorded” adds a separate entry of the source.

The test system of one assay is CtHtrA I365D. Description: Act1 activation of Bcas1 proteolysis by mutated protein. Type of assay: biochemical, Chlamydia trachomatis. The conditions noted are these: I365D mutant; Act1 120 µM. The text has this:
(§1) The hexameric CtHtrA molecular model was examined to identify the putative PDZ1 activator binding cleft (Fig. 4). The base of this cleft in CtHtrA is a hydrophobic pocket formed by the residues L302 and I365 (V328 in E. coli DegP) (Fig. 4). L302 and I365 were targeted for site directed mutagenesis (L302N and I365D) to make this non-polar pocket either polar or charged. The role of a potential conformational change caused by movement of the whole PDZ1 domain relative to the protease subunit was also tested by mutating a highly conserved arginine residue (R299W) on the flexible loop between the protease and PDZ domains. This mutation was made in order to alter the flexibility around this residue while occupying a similar sized area. Additionally, a second mutation was made in conjunction with the R299W mutation on the residue R373A which potentially forms a salt bridge between the PDZ domain and protease domain. This double mutation was made in order to reduce the flexibility and disrupt the mobile salt bridge involved in the PDZ1:protease domain interface. The R373A mutation was also made independently of R299W. These mutated proteins were assayed to examine the impact of the changes on Act1 activation on the Bcas1 substrate proteolysis. […]
(§2) The purified recombinant protein was examined by Coomassie stained polyacrylamide gels and activity was checked using ß-casein cleavage assays prior to use in peptide assays. […] Protease assays using pNA labelled peptides were conducted using the xMARK Microplate spectrophotometer (Bio-Rad) at 405 nm, incubated at 37°C, with a reading taken every 10 s for 30 min. The maximum slope over a minimum of 8 readings was used for the data analysis. […] The assays were excited at 340 nm and emission was detected at 405 nm with a gain of 1000, the assays were monitored every 20 s or at the minimum cycle time for up to 40 min. […] The assay results shown for the fluorescent compounds have been normalised for the amount of fluorescent emission detected using a standard curve of known concentrations of the MCA fluorophore under the identical assay conditions. […]

In another assay the test system is CtHtrA R373A. The assay is described as above. Type of assay: biochemical, Chlamydia trachomatis. The conditions noted are these: R373A mutant; Act1 120 µM.
Text: as §1, §2

A further assay concerns CtHtrA R299W/R373A. The assay is described as above. In kind it is biochemical, Chlamydia trachomatis. The conditions noted are these: R299W/R373A mutant; Act1 120 µM.
Text: as §1, §2

Assay [1] deals with T1, CtHtrA (Chlamydia trachomatis serovar D, UniProt P18584).
T1 construct: His-tag; made in house; host or cells: E. coli BL21 (DE3), plasmid pETHtrA
T1 sequence (P18584 17-497): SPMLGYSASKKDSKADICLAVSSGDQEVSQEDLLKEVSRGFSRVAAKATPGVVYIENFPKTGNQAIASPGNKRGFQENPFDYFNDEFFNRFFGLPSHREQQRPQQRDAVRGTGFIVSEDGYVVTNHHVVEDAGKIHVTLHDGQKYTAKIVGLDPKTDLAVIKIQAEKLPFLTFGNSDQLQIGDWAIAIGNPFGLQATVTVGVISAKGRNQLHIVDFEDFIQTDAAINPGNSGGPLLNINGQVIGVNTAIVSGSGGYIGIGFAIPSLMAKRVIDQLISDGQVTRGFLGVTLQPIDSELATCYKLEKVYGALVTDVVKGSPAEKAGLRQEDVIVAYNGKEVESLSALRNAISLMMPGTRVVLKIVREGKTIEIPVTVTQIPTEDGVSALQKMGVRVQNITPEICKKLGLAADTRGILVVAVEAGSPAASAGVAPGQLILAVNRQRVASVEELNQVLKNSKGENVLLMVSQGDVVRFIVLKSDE
Description: Activation of CtHtrA cleavage of Bcas1 substrate by added activator. In kind it is biochemical. Conditions: substrate Bcas1 (MCA-ENLHLPLPIIF-DNP), fluorimetric, 37°C. As to the method:
To determine if the addition of a second peptide to the protease assays could activate or increase CtHtrA proteolysis, two activator peptides were tested in the CtHtrA cleavage of the model ß-casein peptide substrate Bcas1. The first was based on the ß-casein C-terminal sequence (Act1: NH2-VLGPVRGPFPIIV-OH) and the second on insulin b chain C-terminal sequence (Act2: NH2-CGELGFFYTP-OH).
Finally, in order to determine if the 24-mer (highest amount with MOMP protein, or Act1), or 12-mer, or both, corresponds to enhanced protease activity, the incubations of CtHtrA and these potential in vivo activators were used for protease assays with the Bcas1 substrate (Fig. 6). […] The presence of the majority of CtHtrA as higher order oligomers correlated with an increased rate of proteolysis for CtHtrA, particularly when these oligomers were predominately 24-mers.
as §2, with “assays. Briefly, this involved incubating 2 µg of the protease with 10 µg of ß-casein in 50 mM Tris pH 7.0, 20 mM MgCl2 for 2 h prior to examining the assays by SDS PAGE (ß-casein and protease only controls were always conducted). Protease assays using peptides were conducted using custom synthesised peptides (Mimotopes).” for “assays.”

The target of assay [2] is T1, CtHtrA. Description: MS and MS-MS analysis of peptide cleavage products. In kind it is biochemical. The conditions noted are these: data not shown. As to the method:
Bcas1 and Act1 peptides (150 µM concentration) digested with CtHtrA (71 µg) were analysed by online LC/MS/MS using a QStar Pulsar I (Applied Biosystems) in […] mode. Data acquired were converted into mzXML format using proteowizard (v2) and searched using ([…], the global proteome machine, ftp://ftp.thegpm.org/fasta/cRAP), against CtHtrA and Act1 and Bcas1 peptide sequences with an included decoy database of the reverse sequence for each protein. The search also included potential mass modifications accounting for the additional […] moieties on the N and C peptide termini, respectively. Matches with an expected ratio of <1 were considered identified. All raw data and mass spectra can be made available on request.

As for H-VLGPVRGPFPIIV-OH [Act1], the “effect of Act1 on Bcas1 proteolysis rate” value with CtHtrA I365D, with CtHtrA R373A and in the assay on CtHtrA R299W/R373A was “failed to increase the proteolysis rate” throughout. Besides, the “effect of activator on rate of CtHtrA proteolysis of Bcas1” value on CtHtrA [1] is on record as “greater ability of the two activators to increase the proteolysis rate; also recorded: increased proteolysis rate”. Further, the “cleavage of activator peptide by CtHtrA, MALDI MS MS” value on CtHtrA [2] was “No evidence of Act1 cleavage”.
